The pA2 is a measure of antagonist potency on a negative log scale. High values mean higher antagonist potency, low ones lower antagonist potency. By LD50 is commonly meant the dose at which mortality reaches 50%. Low readings indicate a more toxic substance, high ones a less toxic substance.

Counter-ions that a name gives are not always drawn. Like-named read-outs stand apart in the source and are kept apart here.

The results in this text go back to patent publication US4482560A, “Carbostyril derivatives, and antihistaminic agents containing the same” (priority 1979, dated 1984).

One data set relates to Male mice of ddy-strain. The data set is described as follows: Halothane anesthesia increasing activity. To be noted: for Halothane anesthesia increasing activity / central nervous controlling effect in words: compared with control (physiological saline solution); for Time (minutes) between introduction of anesthesia and waking (righting reflex): oral, 32 mg/kg, 1 hour before 4% Halothane for 3 minutes, male ddy mice, saline control 4.2. The data set is classed as in vivo, mouse. As to the method: Male mice of ddy-strain having about 20 g body weight were used. One test group consists of 10 mice. An aqueous Gummi Arabicum suspension of test compound (80 mg of a compound to be tested and 1 g of Gummi Arabicum/100 ml of physiological NaCl solution) was administered orally to each mouse at the dosage of 32 mg of test compound/kg body. One hour after the administration, each mouse was placed in gas respiration chamber (13×13×24 cm) and oxygen gas containing 4% of Halothane [2-bromo-2-chloro-1,1,1-trifluoroethane] was blown into the chamber at the velocity of 2 l/min for 3 minutes. A mouse anaesthetized was taken out from the chamber and the time between the introduction of anesthesia to waking was measured by righting reflex as the index. To mice of control group, 1% Gummi Arabicum aqueous physiological solution was orally administered at the dosage of 0.1 ml/kg body. (Reference: M. J. Turnbull and J. W. Watkins: Br. J. Pharmacol., 58, 27-35 (1976))

A further data set has as its target ileum of a guinea pig (Cavia porcellus, UniProt P31389). The data set is described as follows: cell-based. As to the method:
Pharmacological tests of the present compounds were conducted according to said method as follows:
A male guinea pig having 300 to 500 g body weight is killed by blood letting. An ileum having length of 15 cm being enucleated from the ileocecal region is dipped into Tyrode's solution (which is prepared from 8.0 g of NaCl, 0.2 g of KCl, 0.2 g of CaCl2, 1.0 g of glucose, 1.0 g of NaHCO3, 0.065 g of NaHPO4.2H2 O and 0.2135 g of MgCl2.6H2 O to make 1000 ml in total volume by adding water). Then the tissue of ileum is cut to a length of 2.5 to 3.0 cm and suspended in an organ bath filled with 30 ml of Tyrode's solution. The organ bath is kept a temperature of 36° C. while blowing a mixed gas consisting of 5% of CO2 and 95% of O2 into the bath. 10 Minutes after the blowing, 10^-6 M of histamine is added to the bath to examine the sensitivity of the tissue and a reaction curve (control) with respect to the dosage of histamine is obtained. After the dosage of histamine-reaction curve (control) become constant 10^-6 g/ml of a compound to be tested is added to the bath and further histamine is added 5 minutes later to obtain dosage-reaction curve. Retraction of the ileum is recorded on a pen-recorder through an isotonic transducer (TD-112S manufactured by Nihon Koden).

A short description of a further data set: Acute toxicity test. The settings on record: rat, in vivo; oral, male rats. From the text:
Each of the compounds of the present invention was orally administered to male rats to determine the acute toxicity.

[1] abbreviates: histamine-induced retraction of guinea pig ileum, test compound 10^-6 g/ml, 36° C., Van Rossam method.
Where [2] appears, read: histamine-induced retraction of guinea pig ileum, test compound 10^-6 g/ml, 36° C., Van Rossam method, read-out: pA2 (converted).

Sequence of ileum of a guinea pig (P31389 whole entry): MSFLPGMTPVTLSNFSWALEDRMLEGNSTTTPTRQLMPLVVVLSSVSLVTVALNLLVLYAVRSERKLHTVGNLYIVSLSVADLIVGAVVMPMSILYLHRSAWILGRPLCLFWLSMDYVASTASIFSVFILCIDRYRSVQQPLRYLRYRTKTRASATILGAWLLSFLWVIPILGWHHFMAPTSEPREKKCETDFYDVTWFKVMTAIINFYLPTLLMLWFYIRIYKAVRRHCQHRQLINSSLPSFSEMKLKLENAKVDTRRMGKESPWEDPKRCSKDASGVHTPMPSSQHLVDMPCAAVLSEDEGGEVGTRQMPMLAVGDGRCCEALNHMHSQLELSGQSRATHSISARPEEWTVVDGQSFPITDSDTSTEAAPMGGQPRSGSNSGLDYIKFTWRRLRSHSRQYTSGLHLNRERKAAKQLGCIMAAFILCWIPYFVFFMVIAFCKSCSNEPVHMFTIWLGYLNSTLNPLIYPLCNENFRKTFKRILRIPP

“7-[4-β-Chlorophenyl)-1-piperazinylpropoxy]-carbostyril [reference compound]”: in the data set with Male mice of ddy-strain, the “Halothane anesthesia increasing activity / central nervous controlling effect in words” value is reported as “different Halothane anesthesia increasing activity as compared with control”; the “Time (minutes) between introduction of anesthesia and waking (righting reflex)” value (from here on “Time (minutes) between introduction”) is 32.7 min.

The molecule “8-(2-Propionyloxy)-5-[2-hydroxy-3-(4-phenyl-1-piperazinyl)propoxy]-3,4-dihydrocarbostyril hydrochloride [Q, reference compound]” registered a pA2 at ileum of a guinea pig (setting [1]) of 8.65. In the data set on Male mice of ddy-strain, the “Halothane anesthesia increasing activity / central nervous controlling effect in words” value was “different Halothane anesthesia increasing activity as compared with control”; the “Time (minutes) between introduction” value is 8.7 min.

On to `C#CCN1C(=O)CCc2c(OCCCN3CCC(Cc4ccccc4)CC3)cccc21.Cl` [Compound 3, 1-Propargyl-5-[3-(4-benzyl-1-piperidyl)-propoxy]-3,4-dihydrocarbostyril monohydrochloride], for which the Kb at ileum of a guinea pig (setting [2]) is 0.186 nM. For the same molecule, in “Acute toxicity test”, the LD50 was more than 1000 mg/kg. Also, the “Time (minutes) between introduction” value in the data set on Male mice of ddy-strain was found to be 5.1 min.

Consider `CN1C(=O)CCc2c(OCCCN3CCC(Cc4ccccc4)CC3)cccc21.Cl` [Compound 4, 1-Methyl-5-[3-(4-benzyl-1-piperidyl)propoxy]-3,4-dihydrocarbostyril monohydrochloride], for which the Kb on ileum of a guinea pig (setting [2]) is 0.01 nM. Moreover, the LD50 in “Acute toxicity test” is more than 1000 mg/kg. The “Time (minutes) between introduction” value in the data set on Male mice of ddy-strain amounted to 4.2 min.

As to `Cc1cc(=O)[nH]c2cc(OCCCN3CCC(Cc4ccccc4)CC3)ccc12` [Compound 5, 4-Methyl-7-[3-(4-benzyl-1-piperidyl)propoxy]-carbostyril], on ileum of a guinea pig (setting [2]), the Kb was 0.257 nM. The molecule further returned a median lethal dose (LD50) in “Acute toxicity test” of more than 1000 mg/kg. Moreover, the “Time (minutes) between introduction” value in the data set on Male mice of ddy-strain was 4.6 min.

With `C=CCN1C(=O)CCc2c(OCC(O)CN3CCC(Cc4ccccc4)CC3)cccc21.O=C(O)C(=O)O` (stereo not drawn) [Compound 6, 1-Allyl-5-[2-hydroxy-(4-benzyl-1-piperidyl)-propoxy]-3,4-dihydrocarbostyril monooxalate], on ileum of a guinea pig (setting [2]), the Kb is 0.288 nM. In “Acute toxicity test”, this molecule registered a median lethal dose (LD50) of more than 1000 mg/kg. Besides, in the data set on Male mice of ddy-strain, the “Time (minutes) between introduction” value worked out at 5.6 min.

Regarding `CCN1C(=O)CCc2c(OCC(O)CN3CCC(Cc4ccccc4)CC3)cccc21.O=C(O)C(=O)O` (stereo not drawn) [Compound 7, 1-Ethyl-5-[2-hydroxy-3-(4-benzyl-1-piperidyl)-propoxy]-3,4-dihydrocarbostyril monooxalate], at ileum of a guinea pig (setting [2]), the Kb was 0.224 nM. The LD50 in “Acute toxicity test” was more than 1000 mg/kg. Further, in the data set with Male mice of ddy-strain, the “Time (minutes) between introduction” value turned out to be 4.2 min.

On to `O=C1CCc2c(OCC(O)CN3CCC(Cc4ccccc4)CC3)ccc(Br)c2N1` (stereo not drawn) [Compound 8, 8-Bromo-5-[2-hydroxy-3-(4-benzyl-1-piperidyl)-propoxy]-3,4-dihydrocarbostyril], for which, on ileum of a guinea pig (setting [2]), the Kb is 4.07 nM. This molecule also gave an LD50 in the data set “Acute toxicity test” of more than 1000 mg/kg. For the same molecule, the “Time (minutes) between introduction” value with Male mice of ddy-strain turned out to be 5.5 min.

For `O=C(O)C(=O)O.O=C1CCc2c(OCC(O)CN3CCC(Cc4ccccc4)CC3)cccc2N1Cc1ccccc1` (stereo not drawn) [Compound 12, 1-Benzyl-5-[2-hydroxy-(4-benzyl-1-piperidyl)-propoxy]-3,4-dihydrocarbostyril monooxalate], the Kb at ileum of a guinea pig (setting [2]) was 0.02 nM. For the same molecule, in “Acute toxicity test”, the LD50 was more than 1000 mg/kg. Moreover, the “Time (minutes) between introduction” value in the data set with Male mice of ddy-strain is 4.2 min.

As to `O=C1CCc2c(cccc2OCCCN2CCC(O)(c3ccccc3)CC2)N1` [Compound 14, 5-{3-[4-(4-Hydroxy-4-phenyl)-1-piperidyl]}-3,4-dihydrocarbostyril], the pA2 on ileum of a guinea pig (setting [1]) was 9.30. This molecule also yielded an LD50 in “Acute toxicity test” of more than 1000 mg/kg. In addition, the “Time (minutes) between introduction” value in the data set on Male mice of ddy-strain came to 5.1 min.

`CC(C(=O)c1cc(Cl)c2c(c1)CCC(=O)N2)N1CCN(c2ccccc2)CC1` (stereo not drawn) [Compound N, 8-Chloro-6-[α-(4-phenyl)-1-piperazinyl)-propionyl]-3,4-dihydrocarbostyril hydrochloride, reference compound]: the Kb at ileum of a guinea pig was 617 nM.

Regarding `O=c1ccc2cccc(OCCCN3CCN(c4ccccc4)CC3)c2[nH]1` [F, 8-(4-Phenyl-1-piperazinylpropoxy)carbostyril, reference compound], the pA2 on ileum of a guinea pig (setting [1]) stood at 8.58. Moreover, the “Time (minutes) between introduction” value with Male mice of ddy-strain came out at 9.5 min.

`O=c1ccc2ccc(OCCCN3CCN(c4ccccc4)CC3)cc2[nH]1` [G, 7-(4-Phenyl-1-piperazinylpropoxy)carbostyril, reference compound]: the “Time (minutes) between introduction” value in the data set on Male mice of ddy-strain came out at 28.7 min.

As for `Cc1cc(=O)[nH]c2ccc(OCCCN3CCN(c4ccccc4)CC3)cc12` [H, 4-Methyl-6-(4-phenyl-1-piperazinylpropoxy)-carbostyril, reference compound], on ileum of a guinea pig (setting [2]), the Kb is 0.269 nM.

As for `Cc1cc(=O)[nH]c2cc(OCCCN3CCN(Cc4ccc(Cl)cc4)CC3)ccc12` [J, reference compound], the pA2 on ileum of a guinea pig (setting [1]) amounted to 9.13. For the same molecule, in the data set on Male mice of ddy-strain, the “Halothane anesthesia increasing activity / central nervous controlling effect in words” value is listed as “different Halothane anesthesia increasing activity as compared with control”; the “Time (minutes) between introduction” value amounted to 8.5 min.

As for `CC(C)(C)NCC(O)c1cc(Cl)c2c(c1)CCC(=O)N2` (stereo not drawn) [K, 8-Chloro-6-(1-hydroxy-2-tert-butylamino-ethyl)-3,4-dihydrocarbostyril monohydrochloride, reference compound], the Kb on ileum of a guinea pig (setting [2]) is 47900 nM.

As for `COc1ccc(CCNC(C)C(=O)c2cc(Cl)c3c(c2)CCC(=O)N3)cc1OC` (stereo not drawn) [L, 8-Chloro-6-[α-(β-3,4-dimethoxyphenethyl-amino)propionyl]-3,4-dihydrocarbostyril monohydrochloride, reference compound], the Kb on ileum of a guinea pig (setting [2]) is 4790 nM.

For `CC(C(O)c1cc(Cl)c2c(c1)CCC(=O)N2)N1CCN(c2ccccc2)CC1` (stereo not drawn) [M, 8-Chloro-6-[1-hydroxy-2-(4-phenyl-1-piperazinyl)propyl]-3,4-dihydrocarbostyril monohydrochloride, reference compound], the Kb on ileum of a guinea pig (setting [2]) was 6460 nM.

Take `COc1ccc(CCNC(C)C(O)c2cc(Cl)c3c(c2)CCC(=O)N3)cc1OC` (stereo not drawn) [O, 8-Chloro-6-[1-hydroxy-2-(β-3,4-dimethoxy-phenethylamino)propyl]-3,4-dihydrocarbostyril hydrochloride, reference compound]: the Kb on ileum of a guinea pig (setting [2]) was 1480 nM.

As for `CC(=O)Oc1ccc(OCC(O)CN2CCN(c3ccccc3Cl)CC2)c2c1NC(=O)CC2` (stereo not drawn) [P, 8-Acetyoxy-5-{2-hydroxy-3-[4-(2-chloro-phenyl)-1-piperazinyl]propoxy}-3,4-dihydrocarbostyril hydrochloride, reference compound], on ileum of a guinea pig (setting [2]), the Kb is 24 nM. In the data set on Male mice of ddy-strain, the “Halothane anesthesia increasing activity / central nervous controlling effect in words” value is given as “different Halothane anesthesia increasing activity as compared with control”; the “Time (minutes) between introduction” value was found to be 8.9 min.

Molecule `COc1ccc(N2CCN(CC(O)COc3ccc(OCc4ccccc4)c4c3CCC(=O)N4)CC2)cc1` (stereo not drawn) [R, Benzyloxy-5-{2-hydroxy-3-[4-(4-methoxy-phenyl)-1-piperazinyl]propoxy}-3,4-dihydrocarbostyril hydrochloride, reference compound] displayed a pA2 on ileum of a guinea pig (setting [1]) of 9.57.

For the molecule `COc1ccc(N2CCN(CC(O)COc3ccc(NC(N)=O)c4c3CCC(=O)N4)CC2)cc1.Cl` (stereo not drawn) [S, 5-{2-Hydroxy-3-[4-(4-methoxyphenyl)-1-piperazinyl]propoxy}-8-ureido-3,4-dihydrocarbostyril hydrochloride, reference compound], the Kb at ileum of a guinea pig (setting [2]) was 10.7 nM. Besides, in the data set on Male mice of ddy-strain, the “Halothane anesthesia increasing activity / central nervous controlling effect in words” value is “different Halothane anesthesia increasing activity as compared with control”; the “Time (minutes) between introduction” value turned out to be 9.1 min.

For the molecule `Cc1ccccc1N1CCN(CC(O)COc2ccc(NS(C)(=O)=O)c3c2CCC(=O)N3)CC1` (stereo not drawn) [T, 8-Methanesulfonylamino-5-{2-hydroxy-3-[4-(2-methylphenyl)-1-piperazinyl]propoxy}-3,4-dihydro-carbostyril, reference compound], at ileum of a guinea pig (setting [2]), the Kb was 15.8 nM. In the data set on Male mice of ddy-strain, the “Halothane anesthesia increasing activity / central nervous controlling effect in words” value is “different Halothane anesthesia increasing activity as compared with control”; the “Time (minutes) between introduction” value came to 8.9 min.
